Assay results as given in patent US11945798B2, “Substituted aminopyridine compounds as EGFR inhibitors” (YUHAN CORPORATION, priority 2021, dated 2024).
Where two headings read alike, the source gives them in different places.

Tests used:
[1] = molecular target: EGFR wildtype (WT) (Homo sapiens, UniProt P00533); experiment: Biochemical EGFR kinase assay (Lance Ultra TR-FRET), wildtype
How it was run: (§1)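 Kinase activity is measured by TR-FRET phosphopeptide detection. Compounds span 0.003 μM to 10 μM; the 1 h reaction at room temperature is quenched with EDTA, then labelled antibody (2 nM) is incubated 60 min before reading.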

[2] = molecular target: EGFR del19/T790M/C797S (Homo sapiens, UniProt P00533, C797S/DEL746-750/T790M); experiment: Biochemical EGFR kinase assay (Lance Ultra TR-FRET), del19/T790M/C797S
Chain of EGFR del19/T790M/C797S (P00533 with tags, fused parts or gaps DEL746-750/T790M/C797S): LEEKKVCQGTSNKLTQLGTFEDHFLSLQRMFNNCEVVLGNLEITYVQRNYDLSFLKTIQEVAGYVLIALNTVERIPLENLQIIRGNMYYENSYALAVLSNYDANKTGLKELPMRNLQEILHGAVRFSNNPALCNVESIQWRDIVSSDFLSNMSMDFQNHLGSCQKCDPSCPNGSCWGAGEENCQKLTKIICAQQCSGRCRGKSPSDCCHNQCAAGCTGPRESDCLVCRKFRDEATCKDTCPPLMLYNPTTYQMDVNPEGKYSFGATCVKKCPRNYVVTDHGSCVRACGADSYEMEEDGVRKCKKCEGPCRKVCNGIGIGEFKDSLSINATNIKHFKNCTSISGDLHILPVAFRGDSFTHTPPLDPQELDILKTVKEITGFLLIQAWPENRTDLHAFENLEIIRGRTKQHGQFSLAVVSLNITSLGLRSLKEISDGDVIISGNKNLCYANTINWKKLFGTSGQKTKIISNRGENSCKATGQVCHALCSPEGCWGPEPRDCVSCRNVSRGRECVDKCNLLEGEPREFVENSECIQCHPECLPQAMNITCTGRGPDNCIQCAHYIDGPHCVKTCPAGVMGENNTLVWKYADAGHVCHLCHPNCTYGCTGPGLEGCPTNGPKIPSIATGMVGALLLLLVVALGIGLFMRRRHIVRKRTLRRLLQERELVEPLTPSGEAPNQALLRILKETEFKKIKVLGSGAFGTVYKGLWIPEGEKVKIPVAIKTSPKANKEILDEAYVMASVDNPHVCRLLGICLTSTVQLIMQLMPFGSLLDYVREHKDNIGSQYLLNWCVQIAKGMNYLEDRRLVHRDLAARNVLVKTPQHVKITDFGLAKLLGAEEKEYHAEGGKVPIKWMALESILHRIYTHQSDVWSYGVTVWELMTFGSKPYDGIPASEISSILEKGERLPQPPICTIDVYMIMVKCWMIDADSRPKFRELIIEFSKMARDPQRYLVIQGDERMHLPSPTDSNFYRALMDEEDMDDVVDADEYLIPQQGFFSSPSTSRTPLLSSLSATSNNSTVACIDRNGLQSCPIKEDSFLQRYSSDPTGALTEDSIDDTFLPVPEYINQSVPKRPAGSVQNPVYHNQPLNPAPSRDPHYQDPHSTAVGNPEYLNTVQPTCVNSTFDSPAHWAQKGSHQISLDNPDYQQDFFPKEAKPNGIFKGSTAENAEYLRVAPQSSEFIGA
How it was run: as §1

[3] = molecular target: EGFR L858R/T790M/C797S (Homo sapiens, UniProt P00533, C797S/L858R/T790M); experiment: Biochemical EGFR kinase assay (Lance Ultra TR-FRET), L858R/T790M/C797S
Chain of EGFR L858R/T790M/C797S (P00533 25-1210 T790M/C797S/L858R): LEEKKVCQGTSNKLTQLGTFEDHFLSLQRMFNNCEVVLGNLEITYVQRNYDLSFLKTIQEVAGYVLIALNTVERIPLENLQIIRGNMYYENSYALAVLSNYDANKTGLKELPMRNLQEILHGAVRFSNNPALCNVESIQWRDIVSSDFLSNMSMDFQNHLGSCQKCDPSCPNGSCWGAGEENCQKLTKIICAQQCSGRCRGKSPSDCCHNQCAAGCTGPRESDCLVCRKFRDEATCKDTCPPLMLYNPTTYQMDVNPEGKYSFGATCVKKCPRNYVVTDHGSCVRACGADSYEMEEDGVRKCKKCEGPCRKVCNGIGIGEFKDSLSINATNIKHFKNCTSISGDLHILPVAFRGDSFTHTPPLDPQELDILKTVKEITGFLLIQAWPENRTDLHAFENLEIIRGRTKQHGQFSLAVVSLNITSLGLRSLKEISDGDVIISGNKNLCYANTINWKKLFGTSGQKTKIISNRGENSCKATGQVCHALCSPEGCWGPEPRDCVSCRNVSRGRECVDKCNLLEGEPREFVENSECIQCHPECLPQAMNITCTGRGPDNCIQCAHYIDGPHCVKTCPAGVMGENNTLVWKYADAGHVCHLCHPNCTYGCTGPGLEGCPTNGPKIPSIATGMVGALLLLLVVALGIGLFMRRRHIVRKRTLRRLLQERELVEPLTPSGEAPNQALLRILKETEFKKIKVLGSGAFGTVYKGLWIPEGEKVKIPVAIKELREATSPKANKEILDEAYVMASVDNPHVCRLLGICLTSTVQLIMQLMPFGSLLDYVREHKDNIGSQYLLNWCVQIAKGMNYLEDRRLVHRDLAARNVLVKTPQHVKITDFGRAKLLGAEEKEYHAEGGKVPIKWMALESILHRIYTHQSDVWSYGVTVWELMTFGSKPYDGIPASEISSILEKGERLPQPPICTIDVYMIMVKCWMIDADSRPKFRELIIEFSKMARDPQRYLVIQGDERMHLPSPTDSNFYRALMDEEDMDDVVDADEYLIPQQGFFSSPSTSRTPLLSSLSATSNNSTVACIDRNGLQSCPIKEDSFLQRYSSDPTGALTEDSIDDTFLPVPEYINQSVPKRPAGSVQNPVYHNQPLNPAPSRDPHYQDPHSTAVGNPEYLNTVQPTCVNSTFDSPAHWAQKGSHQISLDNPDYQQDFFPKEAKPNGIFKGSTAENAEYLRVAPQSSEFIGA
How it was run: as §1

[4] = molecular target: EGFR del19/C797S (Homo sapiens, UniProt P00533, C797S/DEL746-750); experiment: Biochemical EGFR kinase assay (Lance Ultra TR-FRET), del19/C797S
Chain of EGFR del19/C797S (P00533 with tags, fused parts or gaps DEL746-750/C797S): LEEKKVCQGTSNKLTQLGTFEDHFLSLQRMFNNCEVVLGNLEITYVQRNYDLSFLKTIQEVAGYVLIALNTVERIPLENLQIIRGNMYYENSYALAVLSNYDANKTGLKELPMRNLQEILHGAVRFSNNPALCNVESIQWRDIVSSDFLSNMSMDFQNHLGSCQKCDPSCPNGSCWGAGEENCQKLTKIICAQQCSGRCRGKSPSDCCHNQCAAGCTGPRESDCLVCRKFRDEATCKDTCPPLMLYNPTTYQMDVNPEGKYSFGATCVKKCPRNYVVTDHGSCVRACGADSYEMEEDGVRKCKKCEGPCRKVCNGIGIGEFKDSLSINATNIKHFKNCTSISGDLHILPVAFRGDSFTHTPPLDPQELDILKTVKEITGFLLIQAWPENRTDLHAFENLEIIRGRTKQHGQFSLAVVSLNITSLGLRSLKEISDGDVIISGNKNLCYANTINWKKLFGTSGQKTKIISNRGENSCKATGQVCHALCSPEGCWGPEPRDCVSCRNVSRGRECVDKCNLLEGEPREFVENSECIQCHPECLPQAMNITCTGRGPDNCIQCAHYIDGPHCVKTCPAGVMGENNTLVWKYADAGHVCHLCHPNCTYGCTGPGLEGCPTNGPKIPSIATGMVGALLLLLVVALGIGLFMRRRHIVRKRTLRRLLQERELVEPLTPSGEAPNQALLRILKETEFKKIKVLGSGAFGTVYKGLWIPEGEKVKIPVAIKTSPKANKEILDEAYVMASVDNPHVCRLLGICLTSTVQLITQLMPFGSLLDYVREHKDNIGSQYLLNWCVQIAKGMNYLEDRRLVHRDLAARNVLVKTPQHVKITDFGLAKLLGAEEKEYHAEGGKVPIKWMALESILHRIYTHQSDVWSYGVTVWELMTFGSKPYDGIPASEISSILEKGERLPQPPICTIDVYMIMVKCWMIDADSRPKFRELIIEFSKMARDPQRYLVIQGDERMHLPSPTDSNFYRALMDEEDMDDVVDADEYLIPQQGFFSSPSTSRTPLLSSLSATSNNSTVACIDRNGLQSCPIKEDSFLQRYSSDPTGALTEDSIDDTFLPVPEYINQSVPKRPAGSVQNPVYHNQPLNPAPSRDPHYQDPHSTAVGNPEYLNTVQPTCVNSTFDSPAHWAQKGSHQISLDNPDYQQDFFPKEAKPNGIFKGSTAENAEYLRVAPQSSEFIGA
How it was run: as §1

[5] = molecular target: EGFR L858R/C797S (Homo sapiens, UniProt P00533, C797S/L858R); experiment: Biochemical EGFR kinase assay (Lance Ultra TR-FRET), L858R/C797S
How it was run: as §1

[6] = IC50 WT (nM) 100 μM ATP, 100 μM ATP
[7] = IC50 del19/T790M/C797S (nM) 100 μM ATP, 100 μM ATP
[8] = IC50 L858R/T790M/C797S (nM) 100 μM ATP, 100 μM ATP
[9] = IC50 del19/C797S (nM) 100 μM ATP, 100 μM ATP
[10] = IC50 L858R/C797S (nM) 100 μM ATP, 100 μM ATP
[11] = Km ATP, read-out: IC50 WT (nM) Km ATP
[12] = Km ATP, read-out: IC50 del19/T790M/C797S (nM) Km ATP
[13] = Km ATP, read-out: IC50 L858R/T790M/C797S (nM) Km ATP
[14] = Km ATP, read-out: IC50 del19/C797S (nM) Km ATP
[15] = Km ATP, read-out: IC50 L858R/C797S (nM) Km ATP

Chain of EGFR wildtype (WT) (P00533 25-1210): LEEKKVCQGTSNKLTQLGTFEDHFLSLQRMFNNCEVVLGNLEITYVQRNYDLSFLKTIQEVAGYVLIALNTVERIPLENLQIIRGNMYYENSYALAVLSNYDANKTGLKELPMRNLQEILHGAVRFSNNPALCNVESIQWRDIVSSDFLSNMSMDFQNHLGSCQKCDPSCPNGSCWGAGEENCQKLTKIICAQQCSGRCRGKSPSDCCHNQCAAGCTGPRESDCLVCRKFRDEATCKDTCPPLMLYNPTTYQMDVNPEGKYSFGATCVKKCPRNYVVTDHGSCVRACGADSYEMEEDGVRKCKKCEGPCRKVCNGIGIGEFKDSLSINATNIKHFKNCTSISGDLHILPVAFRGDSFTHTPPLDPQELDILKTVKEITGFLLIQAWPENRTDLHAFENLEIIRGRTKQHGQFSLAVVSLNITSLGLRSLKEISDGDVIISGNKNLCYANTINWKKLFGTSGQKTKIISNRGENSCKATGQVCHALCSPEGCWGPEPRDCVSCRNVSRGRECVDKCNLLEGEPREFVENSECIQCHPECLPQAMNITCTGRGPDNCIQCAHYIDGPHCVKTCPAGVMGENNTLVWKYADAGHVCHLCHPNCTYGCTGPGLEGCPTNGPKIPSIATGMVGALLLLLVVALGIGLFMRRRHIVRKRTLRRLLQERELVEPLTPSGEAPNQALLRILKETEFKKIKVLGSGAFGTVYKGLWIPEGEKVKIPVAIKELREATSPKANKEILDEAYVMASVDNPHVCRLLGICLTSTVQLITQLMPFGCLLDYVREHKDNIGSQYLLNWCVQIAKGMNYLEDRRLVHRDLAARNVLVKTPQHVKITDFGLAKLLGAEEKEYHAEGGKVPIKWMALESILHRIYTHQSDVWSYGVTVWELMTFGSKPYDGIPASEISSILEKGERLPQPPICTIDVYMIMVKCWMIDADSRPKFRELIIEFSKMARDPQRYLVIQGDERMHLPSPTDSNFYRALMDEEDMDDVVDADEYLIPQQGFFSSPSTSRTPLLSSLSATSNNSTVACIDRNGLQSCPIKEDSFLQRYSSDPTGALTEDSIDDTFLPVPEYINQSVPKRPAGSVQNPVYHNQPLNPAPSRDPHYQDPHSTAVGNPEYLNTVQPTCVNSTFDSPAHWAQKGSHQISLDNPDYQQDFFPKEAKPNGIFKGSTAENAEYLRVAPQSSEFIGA

Compound	IC50 [1, 6] [nM]	IC50 [2, 7] [nM]	IC50 [3, 8] [nM]	IC50 [4, 9] [nM]	IC50 [5, 10] [nM]	IC50 [1, 11] [nM]	IC50 [2, 12] [nM]	IC50 [3, 13] [nM]	IC50 [4, 14] [nM]	IC50 [5, 15] [nM]
O=C(c1cnc(Nc2ccnc(-c3cnn(S(=O)(=O)C4CC4)c3)n2)cc1NC1CCC(NCCN2CCCCC2)CC1)C1CC1 (stereo not shown) [Example 56, Cyclopropyl(6-((2-(1-(cyclopropylsulfonyl)-1H-pyrazol-4-yl)pyrimidin-4-yl)amino)-4-((4-((2-(piperidin-1-yl)ethyl)amino)cyclohexyl)amino)pyridin-3-yl)methanone]	6300	1	1.2	7.6	12.2	–	–	–	–	–
CN(C)C1CCN(CCNC2CCC(Nc3cc(Nc4ccnc(-c5cnn(S(=O)(=O)C6CC6)c5)n4)ncc3C(=O)C3CC3)CC2)CC1 (stereo not shown) [Example 57, Cyclopropyl(6-((2-(1-(cyclopropylsulfonyl)-1H-pyrazol-4-yl)pyrimidin-4-yl)amino)-4-((4-((2-(4-(dimethylamino)piperidin-1-yl)ethyl)amino)cyclohexyl)amino)pyridin-3-yl)methanone]	> 10000	0.6	1	18	10.7	–	–	–	–	–
CN(C)C[C@H]1CC[C@H](CNc2cc(Nc3ccnc(-c4cn[nH]c4)n3)ncc2C(=O)C2CC2)CC1 [Example 59, (6-((2-(1H-Pyrazol-4-yl)pyrimidin-4-yl)amino)-4-((((1r,4r)-4-((dimethylamino)methyl)cyclohexyl)methyl)amino)pyridin-3-yl)(cyclopropyl)methanone]	–	–	–	–	–	136	1.2	5.7	207	67.9
CN(C)C[C@H]1CC[C@H](COc2cc(Nc3ccnc(-c4cnn(S(=O)(=O)C5CC5)c4)n3)ncc2C(=O)C2CC2)CC1 [Example 66, Cyclopropyl(6-((2-(1-(cyclopropylsulfonyl)-1H-pyrazol-4-yl)pyrimidin-4-yl)amino)-4-(((1r,4r)-4-((dimethylamino)methyl)cyclohexyl)methoxy)pyridin-3-yl)methanone]	–	–	–	–	–	148	0.1	0.4	11.1	101
NC[C@H]1CC[C@H](CNc2cc(Nc3ccnc(-c4cnn(S(=O)(=O)C5CC5)c4)n3)ncc2C(=O)C2CC2)CC1 [Example 67, (4-((((1r,4r)-4-(Aminomethyl)cyclohexyl)methyl)amino)-6-((2-(1-(cyclopropylsulfonyl)-1H-pyrazol-4-yl)pyrimidin-4-yl)amino)pyridin-3-yl)(cyclopropyl)methanone]	–	–	–	–	–	9.3	0.2	0.2	0.7	4.1
CC(=O)NC[C@H]1CC[C@H](CNc2cc(Nc3ccnc(-c4cnn(S(=O)(=O)C5CC5)c4)n3)ncc2C(=O)C2CC2)CC1 [Example 68, N-(((1r,4r)-4-(((5-(Cyclopropanecarbonyl)-2-((2-(1-(cyclopropylsulfonyl)-1H-pyrazol-4-yl)pyrimidin-4-yl)amino)pyridin-4-yl)amino)methyl)cyclohexyl)methyl)acetamide]	–	–	–	–	–	14.9	1	0.5	1	11.8

The remaining lines, values ahead:

IC50 [1, 6] [nM]	IC50 [2, 7] [nM]	IC50 [3, 8] [nM]	IC50 [4, 9] [nM]	IC50 [5, 10] [nM]	IC50 [1, 11] [nM]	IC50 [2, 12] [nM]	IC50 [3, 13] [nM]	IC50 [4, 14] [nM]	IC50 [5, 15] [nM]	Compound
–	–	–	–	–	3.6	0.1	0.1	0.4	2.4	CN(C)C[C@H]1CC[C@H](CNc2cc(Nc3ccnc(-c4cnn(S(=O)(=O)C5CC5)c4)n3)ncc2C(=O)C2CC2)CC1 [Example 58, Cyclopropyl(6-((2-(1-(cyclopropylsulfonyl)-1H-pyrazol-4-yl)pyrimidin-4-yl)amino)-4-((((1r,4r)-4-((dimethylamino)methyl)cyclohexyl)methyl)amino)pyridin-3-yl)methanone]
–	–	–	–	–	7.5	0.1	0.1	0.8	9.2	CC(C)NC[C@H]1CC[C@H](CNc2cc(Nc3ccnc(-c4cnn(S(=O)(=O)C5CC5)c4)n3)ncc2C(=O)C2CC2)CC1 [Example 69, Cyclopropyl(6-((2-(1-(cyclopropylsulfonyl)-1H-pyrazol-4-yl)pyrimidin-4-yl)amino)-4-((((1r,4r)-4-((isopropylamino)methyl)cyclohexyl)methyl)amino)pyridin-3-yl)methanone]
